pIC50: −log10 of the molar value.
Key:
[1] = in vitro; settings: human, Caco-2, pH 7.4
Description: This test allows evaluation of the amount absorbed by the intestinal barrier of the compounds of the invention and of the comparative compounds using the Caco-2 cell line as an in vitro model of intestinal barrier. The permeability test on Caco-2 cells represents an in vitro system approved for predicting and estimating the in vivo intestinal absorption of a drug. When the Caco-2 cells are cultured on a porous filter for about 21 days, they have the capacity to differentiate into enterocytes.
The compounds undergoing the test were diluted from a 10 mM stock solution in HBSS to a final concentration of 10 μM. The system consisted of a confluent cellular monolayer in culture for 21-28 days.
Each compound was tested in triplicate, bidirectionally, at pH 7.4, from the apical to the basolateral compartment (A→B) and from the basolateral to the apical compartment (B→A).
The samples collected at the given time were analysed by HPLC-MS/MS, using an electrospray ion source in positive ionization and SRM (Single Reaction Mode). The chromatographic conditions entailed the use of an XDB-C18 column (2.1×50 mm, Agilent) with a gradient from 5% to 91% of acetonitrile in water containing 0.1% formic acid (total runtime equal to 6.5 minutes) and a flow rate of 0.5 ml/minute. Metoprolol was used as the internal standard.
The concentration data were used to calculate the apparent permeability values (Papp), and the mean and standard deviation of the Papp were calculated.
The flux ratio was calculated as Papp(B→A)/Papp(A→B). The recovery percentage was calculated as: (amount in the receiving compartment+amount in the donor compartment)/nominal amount
The area of the peaks of the test compounds were integrated and the results were expressed as the analyte area/internal standard area ratio and corrected for the dilution factor used during the preparation of the sample. The apparent permeability coefficients were calculated using the following equation: […]
in which: • VA volume in the receiving well (0.25 mL for the test from A→B, 0.075 mL for the test from B→A) • Area area of the membrane surface (0.11 cm^2) • Time total transport time (3600 seconds)

[2] = system: production of PGE2; assay: Inhibition of PGE2 production in IL-1β-stimulated A549 cells (EIA); type: cell-based; settings: Homo sapiens, IL-1β 1 ng/ml, 22 hours
Excerpt: (§1) This test allows evaluation of the inhibitory capacity on the production of the PGE2 and the selectivity relative to the production of the PGF2α.
(§2) The cell line A549, human pulmonary adenocarcinoma, was used, which is particularly sensitive to stimulation with pro-inflammatory cytokines, for instance IL-1β, and, in response to this stimulation, is particularly active in the production and release of two prostanoids: PGE2 and PGF2α (Thoren S. Jakobsson P-J, 2000).
(§3) The cells were stimulated with IL-1β (1 ng/ml) and simultaneously treated with the test compound for 22 hours in an appropriate culture medium (DMEM—Dulbecco's Modified Eagle's Medium) supplemented with 5% foetal calf serum and L-glutamine (4 mM final) in an incubator at 37° C. and at a CO2 concentration of 5%.
(§4) After the incubation, the amount of PGE2 and PGF2α produced and released into the supernatant were assayed using an EIA kit (produced and sold by Cayman Chemicals, Ann Arbor, Mich., USA).
(§5) The comparative compound used was indomethacin at a concentration of 10 nM (Sigma-Aldrich), a non-steroidal anti-inflammatory drug that inhibits in equal measure both PGE2 and PGF2α.
(§6) The results, expressed as the IC50 values, i.e. as the concentration of compound that inhibits 50% of the production of PGE2 and of PGF2α relative to the cells that have been stimulated, but not treated with the same compound, are given in Table 2. The inactivity or the reduced activity of the compound on the biosynthesis of PGF2α is an indication of selectivity towards the production of PGE2 and thus of selective inhibition of mPGES-1.

[3] = system: production of PGF2α; assay: Inhibition of PGF2α production in IL-1β-stimulated A549 cells (EIA); type: cell-based; settings: Homo sapiens, IL-1β 1 ng/ml, 22 hours
Excerpt: as §1, §2, §3, §4, §5, §6

[4] = Metabolic stability in rat hepatic microsomes; settings: 1 μM
Description: (§7) This test allows evaluation of the metabolic stability of the compounds of the invention and of the comparative compounds in rats and in man.
(§8) The compounds to be analysed, at a final concentration of 0 and 1 μM, were placed in a suspension containing the pool of microsomes at a final concentration of 0.5 mg/mL in a final volume of 200 μL, in 96-well plates. The test was standardized with phosphate buffer (75 mM, pH 7.4) and with the NADPH regenerating system (MgCl2: 3.3 mM; G6P: 3.3 mM; G6PD: 0.4 U/mL; NADP+: 1.3 mM). […] The samples were incubated at 37° C. in a humidified incubator. At time 0 and after 60 minutes, 100 μL of acetonitrile containing the internal standard (0.2 μM of metoprolol and 0.4 μM of diclofenac) were added to stop the reaction.
(§9) The samples were centrifuged before analysis. The HPLC/MS/MS analysis was performed using an electrospray ion source in positive ionization and SRM (Single Reaction Mode). The chromatographic conditions entail the use of an XDB-C18 column (2.1×50 mm, Agilent) and a gradient from 5% to 91% of acetonitrile in water containing 0.1% formic acid (total runtime equal to 6 minutes); the flow rate was 0.5 ml/minute.
(§10) The areas of the peaks for the test compounds were integrated and the results expressed as the analyte area/internal standard (PAR) area ratio. For each time, two samples were analysed and the mean value calculated. The percentage of the value of remaining compound was calculated as: % unmetabolized compound=100*(mean PARTfinal/mean PART0).

[5] = Metabolic stability in human hepatic microsomes; settings: 1 μM
Description: as §7, §8, §9, §10

[6] = system: mice; assay: Acetic acid-induced writhing in mice; type: in vivo; settings: for No. of writhes: 20 minutes after acetic acid; for % of inhibition: writhes vs vehicle
Description: The test compound was evaluated in the model of acetic acid-induced writhing in mice (Stock J. L. et al., J. Clin. Inv. 2001, 107: 325-331). This test allows evaluation of the antinociceptive activity of the compounds of the invention in a model of inflammatory pain.
Female CD-1 mice weighing 25-30 g were used for the test. The animals were treated intraperitoneally with the test compound (0.1-10 mg/kg) suspended in methylcellulose (MTC). The control animals were treated with the vehicle alone (MTC) via the same route.
Half an hour after the treatment, an intraperitoneal injection of acetic acid (0.7% v/v in physiological saline, 16 μl/g of body weight) was given to the animals to induce inflammatory pain and to check the effects of the test compound on the nociceptive response.
Immediately after the administration of acetic acid and for the following 20 minutes the number of writhes was measured, which represents the parameter for evaluation of the nociceptive response.

[7] = In vivo bioavailability, oral cassette dosing; settings: oral 5 mg/kg; for Cmax / Tmax / AUC(0-t): plasma; for AUC(0-t): first seven hours, read-out: AUC0-7
Description: This test allowed evaluation of the in vivo bioavailability of the compounds of the invention, thus making it possible to evaluate and compare the pharmacokinetic profile of the test compounds.
The tests were performed using the cassette method, i.e. by administering orally several products simultaneously to the same animal, at a dose of 5 mg/kg. The products were suspended in methylcellulose (MTC). The treated animals were catheterized for the serial collection of blood samples performed by means of an automatic sampling system. The plasmatic concentrations of the products were measured by HPLC/MS/MS. The profiles of the plasmatic concentrations over time made it possible to evaluate the relative bioavailability of the test products in terms of rate (tmax and Cmax) and […] (AUC). The slope of the curve in the end portion also allowed a comparative evaluation of the rate of elimination of the compounds from the plasma, the slower the rate, the lower the slope. Three animals were treated for each combination of compounds.
The results, expressed as the Cmax, i.e. as the maximum concentration of drug reached in the plasma, Tmax, i.e. the time required to reach the maximum drug concentration in the plasma, and AUC0-7, i.e. the area under the curve of the plasmatic concentrations of drug over time, measured in the first seven hours after administration, are given in Table 5.

[8] = Sprague-Dawley, rat, microsomes, 1 h, pH 7.4
[9] = microsomes 0.5 mg/mL, 60 minutes, 37° C.

SMILES: CC(C)NCC(O)COc1cccc2ccccc12 (stereo not drawn) [Propranolol, propranolol, reference compound]
- Papp at 3600 seconds, 10 μM [1]: > 20 ×10⁻⁶ cm/s

SMILES: CC(C)(O)CCn1c2ccccc2c2cc(NC(=O)c3ccccc3Cl)ccc21 [Compound 6, 2-chloro-N-[9-(3-hydroxy-3-methylbutyl)-9H-carbazol-3-yl]benzamide]
- pIC50 [2]: 6.22
- Papp at 3600 seconds, 10 μM [1]: > 20 ×10⁻⁶ cm/s
- melting point: 120 to 124 °C
- pIC50 [3]: < 4.00
- % unmetabolized compound, Rat [4, 8]: 74%
- % unmetabolized compound, Man ([5]; human, microsomes, 1 h, pH 7.4): 65%

SMILES: COc1ccc2c(c1)c(CC(=O)O)c(C)n2C(=O)c1ccc(Cl)cc1 [Indomethacin, indomethacin, reference compound]
- pIC50 [2]: 8.30
- pIC50 [3]: 8.52

SMILES: C[C@]12CC[C@H]3[C@@H](CCC4=CC(=O)CC[C@@]43C)[C@@H]1CC[C@@H]2O [Testosterone, testosterone, reference compound]
- % unmetabolized compound, Rat [4, 9]: 0%
- % unmetabolized compound, Man [5, 9]: 27%

SMILES: CC(=O)CC(c1ccccc1)c1c(O)c2ccccc2oc1=O (stereo not drawn) [Warfarin, warfarin, reference compound]
- % unmetabolized compound, Rat [4, 8]: 97%
- % unmetabolized compound, Man ([5]; human, microsomes, 1 h, pH 7.4): 103%

SMILES: O=C(Nc1ccc2c(c1)c1ccccc1n2CCO)c1ccccc1Cl [Compound 5, 2-chloro-N-[9-(2-hydroxyethyl)-9H-carbazol-3-yl]benzamide]
- Papp at 3600 seconds, 10 μM [1]: > 20 ×10⁻⁶ cm/s
- melting point: 168 to 169 °C
- % unmetabolized compound, Rat [4, 8]: 63%
- % unmetabolized compound, Man ([5]; human, microsomes, 1 h, pH 7.4): 76%

SMILES: O=C(Nc1ccc2c(c1)c1ccccc1n2CCO)c1ccccc1C(F)(F)F [Compound 1, N-[9-(2-hydroxyethyl)-9H-carbazol-3-yl]-2-(trifluoromethyl)benzamide]
- pIC50 [2]: 5.54
- No. of writhes ([6]; 0.1 mg/kg intraperitoneally): 38.4 ± 3.99
- % of inhibition ([6]; 0.1 mg/kg intraperitoneally): 21%
- No. of writhes ([6]; 1 mg/kg intraperitoneally): 31.5 ± 5.72
- % of inhibition ([6]; 1 mg/kg intraperitoneally): 35%
- No. of writhes ([6]; 10 mg/kg intraperitoneally): 12.8 ± 2.46
- % of inhibition ([6]; 10 mg/kg intraperitoneally): 74%
- Papp at 3600 seconds, 10 μM [1]: > 20 ×10⁻⁶ cm/s
- melting point: 176 to 177 °C
- pIC50 [3]: < 4.00
- % unmetabolized compound, Rat [4, 8]: 58%
- bioavailability / absorption in words [7]: good bioavailability characteristics
- Cmax [7]: 1200 ng/mL
- Tmax [7]: 1.5 h
- AUC(0-t) [7]: 5750 ng·h/mL
- % unmetabolized compound, Man ([5]; human, microsomes, 1 h, pH 7.4): 81%

SMILES: CC(C)(O)Cn1c2ccccc2c2cc(NC(=O)c3ccccc3C(F)(F)F)ccc21 [Compound 2, N-[9-(2-hydroxy-2-methylpropyl)-9H-carbazol-3-yl]-2-(trifluoro-methyl)benzamide]
- pIC50 [2]: 5.64
- Papp at 3600 seconds, 10 μM [1]: > 20 ×10⁻⁶ cm/s
- melting point: 179 to 181 °C
- pIC50 [3]: < 4.00
- % unmetabolized compound, Rat [4, 8]: 68%
- bioavailability / absorption in words [7]: good bioavailability characteristics
- Cmax [7]: 984 ng/mL
- Tmax [7]: 4.3 h
- AUC(0-t) [7]: 5400 ng·h/mL
- % unmetabolized compound, Man ([5]; human, microsomes, 1 h, pH 7.4): 82%

SMILES: C[C@H]1O[C@@H](O[C@H]2[C@@H](O)C[C@H](O[C@H]3[C@@H](O)C[C@H](O[C@H]4CC[C@@]5(C)[C@H](CC[C@@H]6[C@@H]5C[C@@H](O)[C@]5(C)[C@@H](C7=CC(=O)OC7)CC[C@]65O)C4)O[C@@H]3C)O[C@@H]2C)C[C@H](O)[C@@H]1O [Digoxin, digoxin, reference compound]
- Papp at 3600 seconds, 10 μM [1]: < 2 ×10⁻⁶ cm/s

SMILES: CC(C)(O)CCn1c2ccccc2c2cc(NC(=O)c3ccccc3C(F)(F)F)ccc21 [Compound 3, N-[9-(3-hydroxy-3-methylbutyl)-9H-carbazol-3-yl]-2-(trifluoromethyl)benzamide]
- pIC50 [2]: 5.85
- Papp at 3600 seconds, 10 μM [1]: > 20 ×10⁻⁶ cm/s
- melting point: 188 to 189 °C
- pIC50 [3]: < 4.00
- % unmetabolized compound, Rat [4, 8]: 65%
- bioavailability / absorption in words [7]: good bioavailability characteristics
- Cmax [7]: 457 ng/mL
- Tmax [7]: 1.8 h
- AUC(0-t) [7]: 2670 ng·h/mL
- % unmetabolized compound, Man ([5]; human, microsomes, 1 h, pH 7.4): 77%

SMILES: CC(=O)Cn1c2ccccc2c2cc(NC(=O)c3ccccc3C(F)(F)F)ccc21 [Compound 4, N-[9-(2-oxopropyl)-9H-carbazol-3-yl]-2-(trifluoromethyl)benzamide]
- pIC50 [2]: 5.25
- Papp at 3600 seconds, 10 μM [1]: > 20 ×10⁻⁶ cm/s
- melting point: 223 to 226 °C
- pIC50 [3]: < 4.00
- % unmetabolized compound, Rat [4, 8]: 58%
- % unmetabolized compound, Man ([5]; human, microsomes, 1 h, pH 7.4): 7%
